US5013841A, “Oxo quinoline derivatives” (Dainippon Pharmaceutical Co., Ltd., priority 1987, dated 1991)
Values after ≈ are worked out from the molar mass of the structure shown. Read-outs that look alike come from different tables or passages of the source.

Legend:
[1] = tested on: S. aureus 209 JC-1; assay: In vitro antibacterial activity (twofold agar-dilution method); assay type: cell-based; conditions: Staphylococcus aureus, read-out: minimum inhibitory concentration (MIC)
Protocol: (§1) The figures in the table show minimum inhibitory concentrations (MIC) (μg/ml), calculated for free base. The minimum inhibitory concentration was determined by the twofold agar-dilution method, which was recommended by Japan Society of Chemotherapy (Chemotherapy, 29(1), 76(1981)), using Muller-Hinton agar. One loopful of an overnight culture of test organisms in Mueller-Hinton broth was inoculated onto 10-ml drug-containing agar layers in petri dishes. Bacterial inocula contained approximately 10^6 colonyl-formingunits. Bacterial growth was observed after 20-hour incubation at 37° C. The MIC was defined as the lowest drug concentration which prevented visible bacterial growth.

[2] = tested on: E. coli NIHJ JC-2; assay: as above; assay type: cell-based; conditions: Escherichia coli, NIHJJC2; E. coli NIHJ JC-2; agar dilution, 20 h, 37° C., calculated for free base; read-out: minimum inhibitory concentration (MIC)
Protocol: as §1

[3] = tested on: P. Aeruginosa 12; assay: as above; assay type: cell-based; conditions: Pseudomonas aeruginosa, 20 h, read-out: minimum inhibitory concentration (MIC)
Protocol: as §1

[4] = tested on: S. aureus No. 80; assay: as above; assay type: cell-based; conditions: Staphylococcus aureus; S. aureus No. 80; agar dilution, 20 h, 37° C., calculated for free base; read-out: minimum inhibitory concentration (MIC)
Protocol: as §1

[5] = tested on: S. epidermidis No. 8; assay: as above; assay type: cell-based; conditions: Staphylococcus epidermidis, read-out: minimum inhibitory concentration (MIC)
Protocol: as §1

[6] = tested on: Flavobacterium sp P-7201; assay: as above; assay type: cell-based; conditions: read-out: minimum inhibitory concentration (MIC)
Protocol: as §1

[7] = tested on: S. marcescens IFO 3736; assay: as above; assay type: cell-based; conditions: Serratia marcescens, IFO3736; S. marcescens IFO 3736; agar dilution, 20 h, 37° C., calculated for free base; read-out: minimum inhibitory concentration (MIC)
Protocol: as §1

[8] = tested on: E. coli P-5101; assay: as above; assay type: cell-based; conditions: Escherichia coli, P5101; E. coli P-5101; agar dilution, 20 h, 37° C., calculated for free base; read-out: minimum inhibitory concentration (MIC)
Protocol: as §1

[9] = tested on: S. pyogenes Cook; assay: as above; assay type: cell-based; conditions: Streptococcus pyogenes, 20 h, 37° C., calculated for free base, read-out: minimum inhibitory concentration (MIC)
Protocol: as §1

[10] = tested on: S. aureus Terajima; assay: as above; assay type: cell-based; conditions: Staphylococcus aureus, 20 h, read-out: minimum inhibitory concentration (MIC)
Protocol: as §1

[11] = Acute oral toxicity in mice; conditions: mouse, in vivo, male mice (ddY), 7 days, Behrens-Kaerber method, read-out: median lethal dose (LD50)
Protocol: A suspension containing each of compounds of this invention in various concentrations was orally given to male mice (ddY) at a dose of 0.1 ml per 10 g of body weight. The number of dead mice was counted after 7 days, and the value of median lethal dose (LD50, mg/kg) was calculated in accordance with the Behrens-Kaerber method.

[12] = tested on: M. orale CH-19299; assay: Antimycoplasma activity (twofold agar dilution method); assay type: cell-based; conditions: 48 h, read-out: minimum inhibitory concentration (MIC)
Protocol: (§2) The figures in the table show minimum inhibitory concentrations (MIC), (μg/ml), calculated for free base.
(§3) Minimum inhibitory concentrations (MIC) were determined by the twofold agar dilution method. The media used were Chanock broth and agar PPLD broth and agar (Difco) supplemented with 20% horse serum and 10% fresh yeast extract). A 2-3 day broth culture of organisms was diluted with Chanock broth to a cell density of about 10^6 cells/ml. One loopful (about […]) of the organism dilution was spotted onto 10-ml drug containing Chanock agar in petri dishes using a multiple inoculator (Cathra International). The petri dishes were incubated at 37° C. for 7 and 2 days for Mycoplasma pneumoniae and other Mycoplasma spp. respectively. Incubation was performed anaerobically using the Gaspak anaerobic system (BBL) for M. buccale, M. fermentans, M. hominis, M. orale and M. salivarium, and aerobically for other Mycoplasma spp. The MIC was defined as the lowest compound concentration at which no growth of organism was detected.

[13] = tested on: M. pneumoniae Mac; assay: as above; assay type: cell-based, Mycoplasma pneumoniae; conditions: Mycoplasmoides pneumoniae, 168 h; M. pneumoniae Mac; Chanock agar, 37° C., 7 days, aerobic, calculated for free base; read-out: minimum inhibitory concentration (MIC)
Protocol: as §2, §3

[14] = tested on: C. Trachomatics G/ur 1317; assay: Antichlamydia activity (inclusion bodies in McCoy cells); assay type: cell-based; conditions: 36° C., 40-48 h, calculated for free base, read-out: minimum inhibitory concentration (MIC)
Protocol: (§4) Minimum inhibitory concentrations (MIC) were determined as follows. McCoy cells were freshly cultured in Eagle's minimum essential medium (EMEM) (Flow) supplemented with 4% fetal bovine serum and 0.03% L-glutamine. The cells were trypsinized and suspended in the same culture medium at a cell concentration of 1-2×10^5 cells/ml. One ml of the cell suspension was pipetted into flat-bottomed plastic tubes (14 mm in diameter) containing a cover slip (12 mm in diameter). The tubes were incubated in 5% CO2 -air at 36° C. for 20 hours. One-half ml of a chlamydial suspension (ca. 1-4×10^3 inclusion body forming units) was added into each tube, which was then centrifuged at 1500×g for 60 minutes. The tubes were incubated for 1 hour at 36° C. The medium was changed with 1 ml of EMEM supplemented with 8% fetal bovine serum, 0.03% L-blutamine, 1μg/ml cycloheximide and 0.5% glucose, and containing drugs at various concentrations. After further incubation at 36° C. for 40-48 hours, the cells on the cover glasses were stained with the Giemsa's solution. […] The MIC was defined as the lowest drug concentration where there were no inclusion bodies in all the cells on the cover slip.

[15] = tested on: C. Trachomatics G/ur 1483; assay: as above; assay type: cell-based; conditions: 36° C., 40-48 h, calculated for free base, read-out: minimum inhibitory concentration (MIC)
Protocol: as §4

[16] = tested on: C. Trachomatics G/ur 1467; assay: as above; assay type: cell-based; conditions: 36° C., 40-48 h, calculated for free base, read-out: minimum inhibitory concentration (MIC)
Protocol: as §4

[17] = tested on: C. Trachomatics G/ur 931; assay: as above; assay type: cell-based; conditions: 36° C., 40-48 h, calculated for free base, read-out: minimum inhibitory concentration (MIC)
Protocol: as §4

Compound | MIC [2] [µg/mL] | MIC [4] [µg/mL] | MIC [7] [µg/mL] | MIC [8] [µg/mL] | MIC [9] [µg/mL] | LD50 at 168 h [11] [mg/kg] | MIC [13] [µg/mL] | MIC [14] [µg/mL] | MIC [15] [µg/mL] | MIC [16] [µg/mL] | MIC [17] [µg/mL] | also measured
Nc1c(F)c(N2CCNCC2)cc2c1c(=O)c(C(=O)O)cn2C1CC1 [Compound 1] | 0.0063 (≈ 0.0182 µM) | 0.05 (≈ 0.144 µM) | 0.1 (≈ 0.289 µM) | 0.0063 (≈ 0.0182 µM) | 0.2 (≈ 0.577 µM) | > 2000 | 0.1 (≈ 0.289 µM) | 0.25 (≈ 0.722 µM) | 0.25 (≈ 0.722 µM) | 0.25 (≈ 0.722 µM) | 0.25 (≈ 0.722 µM) | MIC ([1]; 209JC1, S. aureus 209 JC-1, agar dilution, 20 h, 37° C., calculated for free base): 0.025 µg/mL (≈ 0.0722 µM); MIC ([3]; P. Aeruginosa 12, agar dilution, 37° C., calculated for free base): 0.05 µg/mL (≈ 0.144 µM); MIC ([5]; S. epidermidis No. 8, agar dilution, 20 h, 37° C., calculated for free base): 0.025 µg/mL (≈ 0.0722 µM); MIC ([6]; P7201, Flavobacterium sp P-7201, agar dilution, 20 h, 37° C., calculated for free base): 0.1 µg/mL (≈ 0.289 µM); MIC ([10]; S. aureus Terajima, agar dilution, 37° C., calculated for free base): 0.05 µg/mL (≈ 0.144 µM); MIC ([12]; M. orale CH-19299, Chanock agar, 37° C., 2 days, anaerobic, calculated for free base): 0.39 µg/mL (≈ 1.13 µM)
C[C@@H]1CN(c2cc3c(c(N)c2F)c(=O)c(C(=O)O)cn3C2CC2)C[C@H](C)N1 [Compound 2, 5-amino-1-cyclopropyl-6-fluoro-7-(cis-3,5-dimethyl-1-piperazinyl)-1,4-dihydro-4-oxoquinoline-3-carboxylic acid] | 0.025 (≈ 0.0668 µM) | 0.025 (≈ 0.0668 µM) | 0.78 (≈ 2.08 µM) | 0.025 (≈ 0.0668 µM) | 0.39 (≈ 1.04 µM) | > 2000 | 0.1 (≈ 0.267 µM) | 0.063 (≈ 0.168 µM) | 0.063 (≈ 0.168 µM) | 0.063 (≈ 0.168 µM) | 0.063 (≈ 0.168 µM) | MIC ([1]; 209JC1, 20 h): 0.1 µg/mL (≈ 0.267 µM); MIC [3]: 0.39 µg/mL (≈ 1.04 µM); MIC ([5]; NO.8, 20 h): 0.1 µg/mL (≈ 0.267 µM); MIC ([6]; Flavobacterium, P7201, 20 h): 0.1 µg/mL (≈ 0.267 µM); MIC [10]: 0.05 µg/mL (≈ 0.134 µM); MIC [12]: 0.39 µg/mL (≈ 1.04 µM)
